Test results as given in paper PMC12150604, “Exploring structure–activity relationships of pyrrolyl diketo acid derivatives as non-nucleoside inhibitors of terminal deoxynucleotidyl transferase enzyme” (Journal of Enzyme Inhibition and Medicinal Chemistry, 2025).
Read-outs that look alike come from different tables or passages of the source.

Legend:
[1] = test system: leukaemia cells overexpressing TdT; set-up: method as in PMID 22390204; details: read-out: cytotoxicity activity IC50; cited from earlier work
[2] = biological target: T1, human TdT (Homo sapiens, UniProt P04053); assay: Terminal transferase assay, TdT; type: biochemical; details: human TdT
T1 construct: purchased Trevigen (Gaithersburg, MD)
T1 sequence (P04053 whole entry): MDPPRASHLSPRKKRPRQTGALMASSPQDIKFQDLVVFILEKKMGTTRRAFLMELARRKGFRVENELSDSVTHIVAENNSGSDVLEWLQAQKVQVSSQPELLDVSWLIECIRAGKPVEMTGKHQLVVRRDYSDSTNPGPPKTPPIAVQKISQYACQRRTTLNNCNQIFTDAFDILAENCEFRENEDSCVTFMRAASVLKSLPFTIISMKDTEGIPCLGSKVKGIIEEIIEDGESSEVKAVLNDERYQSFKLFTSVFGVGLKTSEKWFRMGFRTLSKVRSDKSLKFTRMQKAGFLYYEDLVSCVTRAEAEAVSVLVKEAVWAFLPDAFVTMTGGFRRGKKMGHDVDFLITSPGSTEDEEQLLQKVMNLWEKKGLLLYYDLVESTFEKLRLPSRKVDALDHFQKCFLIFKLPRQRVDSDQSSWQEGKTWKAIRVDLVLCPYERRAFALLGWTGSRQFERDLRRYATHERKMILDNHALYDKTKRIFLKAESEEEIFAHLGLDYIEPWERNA
Protocol: (§1) Recombinant full-length human DNA polymerase λ and β were generated and purified as described. After purification, the protein was >90% homogeneous, as judged by sodium dodecyl sulphate (SDS)−polyacrylamide gel electrophoresis (PAGE) and Coomassie staining. TdT was from Trevigen (Gaithersburg, MD).
(§2) Terminal Transferase Assay. DNA polymerase λ and TdT terminal transferase activities were assayed in a final volume of 25 μL containing 50 mM Tris-HCl (pH 7.0), 0.25 mg/mL BSA, 1 mM DTT, 0.2 μM ss 30mer (AAC)10 DNA oligonucleotide, 25 μM [3H]dNTPs (10 Ci/mmol) and 0.5 mM MnCl2 or 5 mM MgCl2 used as cofactors. Terminal transferase activity was monitored in the presence of 10% DMSO or in the presence of increasing amounts of inhibitors dissolved in DMSO. All reactions were incubated for 10 min at 37 °C and the DNA precipitated with 10% trichloroacetic acid. Insoluble radioactive material was determined by scintillation counting using Trilux beta-counter (PerkinElmer) as described.
(§3) Dose − response curves were generated by computer fitting of the data to the equation E(%) = Emax/(1 + I/ID50) where E(%) is the fraction of enzyme’s activity measured in the presence of the inhibitor, Emax is the activity in the absence of the inhibitor, I is the inhibitor concentration, and ID50 is the inhibitor concentration at which E(%) = 0.5 Emax. ID50 values were generated using GraphPad Prism 6.

[3] = biological target: T2, human DNA polymerase λ (Homo sapiens, UniProt Q9UGP5); assay: Terminal transferase assay, DNA polymerase λ (TdT-like activity); type: biochemical; details: for IC50: enzymatic assay, TdT-like activity of pol λ, read-out: ID50 pol λ (TdT)
T2 construct: Recombinant full-length human DNA polymerase λ and β were generated and purified as described; made in house
T2 sequence (Q9UGP5 1-575): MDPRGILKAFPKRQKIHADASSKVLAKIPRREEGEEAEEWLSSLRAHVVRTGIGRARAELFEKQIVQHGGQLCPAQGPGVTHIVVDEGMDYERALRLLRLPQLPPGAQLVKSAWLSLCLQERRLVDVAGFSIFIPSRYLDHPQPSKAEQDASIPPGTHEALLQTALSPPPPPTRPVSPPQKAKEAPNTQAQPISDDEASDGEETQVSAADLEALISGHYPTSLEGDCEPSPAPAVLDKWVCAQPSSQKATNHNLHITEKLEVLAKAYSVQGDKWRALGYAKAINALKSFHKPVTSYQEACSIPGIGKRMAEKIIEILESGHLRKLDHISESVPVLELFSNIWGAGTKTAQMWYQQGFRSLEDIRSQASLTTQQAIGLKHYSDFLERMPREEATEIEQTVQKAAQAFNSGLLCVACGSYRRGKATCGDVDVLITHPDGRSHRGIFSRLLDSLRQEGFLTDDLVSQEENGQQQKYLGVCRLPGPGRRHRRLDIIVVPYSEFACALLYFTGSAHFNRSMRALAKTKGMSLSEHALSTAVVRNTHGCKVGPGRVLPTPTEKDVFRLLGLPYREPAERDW
Protocol: as §1, §2, §3

[4] = biological target: T3, human DNA polymerase β (Homo sapiens, UniProt P06746); assay: Polymerase assay, DNA polymerase β; type: biochemical; details: for pol β Residual activity (%) Mg2+ / pol β Residual activity (%) Mn2+: after treatment 100 mM; for IC50: enzymatic assay, read-out: ID50 pol β; for residual polymerase activities: fix concentration of 100 µM, pol β
T3 construct: Recombinant full-length human DNA polymerase λ and β were generated and purified as described; made in house
Protocol: as §1
(§4) Polymerase Assay: Activity of DNA polymerase λ and β were assessed using poly(dA)/oligo(dT)10:1 substrate in a final volume of 25 μL containing 50 mM Tris-HCl (pH 7.0), 0.25 mg/mL BSA, 1 mM, DTT, 0.2 μM poly(dA)/oligo(dT)10:1 (3′-OH ends), 50 nM DNA polymerase λ or β, 5 μM [3H]-2′-deoxythymidine 5′-triphosphate (dTTP) (5 Ci/mmol), and 0.5 mM MnCl2 or 5 mM MgCl2 used as cofactors. The polymerase activity was monitored in the presence of 10% DMSO or in the presence of increasing amounts of inhibitors dissolved in DMSO. All reactions were incubated for 15 min at 37 °C and the DNA precipitated with 10% trichloroacetic acid. Insoluble radioactive material was determined by scintillation counting using Trilux beta-counter (PerkinElmer) as described.
as §3

[5] = biological target: T2, human DNA polymerase λ; assay: Polymerase assay, DNA polymerase λ (template-dependent); type: biochemical; details: for pol λ (Pol) Residual activity (%) Mg2+ / pol λ (Pol) Residual activity (%) Mn2+: after treatment 100 mM; for IC50: enzymatic assay, template-dependent polymerase activity, read-out: ID50 pol λ (Pol); for residual polymerase activities: fix concentration of 100 µM, pol λ
Protocol: as §1, §4, §3

[6] = biological target: T2, human DNA polymerase λ; set-up: method as in PMID 19329428; details: enzymatic assay; cited from earlier work
[7] = biological target: T2, human DNA polymerase λ; set-up: method as in PMID 19329428; details: enzymatic assay; cited from earlier work; remark: listed apart in the source
[8] = biological target: T3, human DNA polymerase β; set-up: method as in PMID 19329428; details: enzymatic assay; cited from earlier work
[9] = Mn2+ as cofactor, read-out: ID50 (µM) Mn2+
[10] = Mg2+ as cofactor, read-out: ID50 (µM) Mg2+

Row | Compound | IC50 [2, 9] [µM] | IC50 [2, 10] [µM] | IC50 [3] [µM] | IC50 [4] [µM] | residual polymerase activities [4] | IC50 [5] [µM] | residual polymerase activities [5] | ID50 pol λ (Pol) [6] [µM] | ID50 pol λ (TdT) [7] [µM] | ID50 pol β [8] [µM] | other results
1 | C#Cc1cn([C@H]2C[C@H](O)[C@@H](COP(=O)(O)OP(=O)(O)OP(=O)(O)O)O2)c2ccc([N+](=O)[O-])cc12 [3-eth-5-NITP, 3-ethynyl-5-nitroindolyl-2′-deoxynucleoside triphosphate] | – | – | – | – | – | – | – | – | – | – | IC50 [1]: 3.9 µM
2 | CCOC(=O)/C(O)=C/C(=O)/C=C/c1cc(C(=O)c2ccccc2)cn1Cc1ccc(OC)cc1 [Compound 5i] | > 50 | 10.5 ± 0.2 | > 100 | 7.94 ± 0.1 | less than 10% | 4.07 ± 0.3 | less than 10% | – | – | – | –
3 | O=C(/C=C(\O)C(=O)O)/C=C/c1cc(C(=O)c2cccc(F)c2)c[nH]1 [Compound 3] | 0.78 ± 0.04 | – | – | – | – | – | – | > 40 | 35 ± 1 | > 40 | –
4 | O=C(/C=C(\O)C(=O)O)/C=C/c1cc(C(=O)c2ccccc2)cn1Cc1ccc(F)cc1 [Compound 2] | 9.5 ± 0.1 | – | – | – | – | – | – | > 40 | > 40 | > 40 | –
5 | O=C(/C=C(\O)C(=O)O)/C=C/c1cc(C(=O)c2ccccc2)cn1Cc1ccccc1 [Compound 1] | 16 ± 0.5 | – | – | – | – | – | – | > 40 | 20 ± 1 | > 40 | –
6 | CCOC(=O)/C(O)=C/C(=O)/C=C/c1cc(C(=O)c2ccccc2)cn1Cc1ccc(Cl)cc1 [Compound 5h] | > 50 | 17.51 ± 0.12 | > 100 | 12.4 ± 0.3 | less than 10% | 4.08 ± 0.4 | less than 10% | – | – | – | –
7 | O=C(/C=C(\O)C(=O)O)/C=C/c1cc(C(=O)c2ccc(F)cc2)c[nH]1 [Compound 4] | 0.58 ± 0.03 | – | – | – | – | – | – | > 40 | 40 ± 1 | > 40 | –

Further lines, with some results ahead:

Row | IC50 [2, 9] [µM] | IC50 [2, 10] [µM] | IC50 [3] [µM] | IC50 [4] [µM] | residual polymerase activities [4] | IC50 [5] [µM] | residual polymerase activities [5] | Compound | ID50 pol λ (Pol) [6] [µM] | ID50 pol λ (TdT) [7] [µM] | ID50 pol β [8] [µM] | other results
8 | 10.10 | – | – | – | – | – | – | 4-(1-(4-fluorobenzyl)-4-phenyl-1H-pyrrol-3-yl)-2,4-dioxobutanoic acid [Compound 12b] | – | – | – | ID50 (µM) Mn2+ ([2]; Mn2+ as cofactor): 10.10 ± 4.1 µM; pol λ (TdT) Residual activity (%) Mn2+ ([3]; after treatment 100 mM, Mn2+): 100%; pol β Residual activity (%) Mg2+ [4]: 51.7%; pol β Residual activity (%) Mn2+ [4]: 82.5%; pol λ (Pol) Residual activity (%) Mg2+ [5]: 74.0%; pol λ (Pol) Residual activity (%) Mn2+ [5]: 79.0%
9 | > 50 | 2.7 ± 0.32 | > 100 | 14.7 ± 0.8 | less than 10% | 4.06 ± 0.1 | less than 10% | COc1ccc(Cn2cc(C(=O)c3ccccc3)cc2/C=C/C(=O)/C=C(\O)C(=O)O)cc1 [Compound 6i] | – | – | – | –
10 | – | 5.1 ± 0.12 | > 100 | 20 ± 0.4 | less than 10% | 4.06 ± 0.2 | less than 10% | O=C(/C=C(\O)C(=O)O)/C=C/c1cc(C(=O)c2ccccc2)cn1Cc1ccc(Cl)cc1 [Compound 6h] | – | – | – | –
11 | >50 | – | – | – | – | – | – | Ethyl 4-(1-(4-fluorobenzyl)-4-phenyl-1H-pyrrol-3-yl)-2,4-dioxobutanoate [Compound 11b] | – | – | – | pol β Residual activity (%) Mg2+ [4]: 60.5%; pol β Residual activity (%) Mn2+ [4]: 88%; pol λ (Pol) Residual activity (%) Mg2+ [5]: 70.0%; pol λ (Pol) Residual activity (%) Mn2+ [5]: 94.0%
